Source: patent US6491922B1, “Methods and compounds for treating autoimmune and vascular disease” (Cornell Research Foundation, Inc., priority 1996, dated 2002)
Values joined by “and” are separate entries in the source; they are usually repeats but may differ in a detail not shown here. Identical values can stand only once. “Also recorded” adds a separate entry of the source. Like-named read-outs stand apart in the source and are kept apart here.

Tests used:
[1] = test system: IL-1β mRNA; test: IL-1β mRNA stability with actinomycin D in THP-1 cells; format: cell-based, human; conditions: 2 μM LPG simultaneous with LPS 2 μg/ml, actinomycin D after 2 h
Method: THP-1 cells (10^7 cells/condition) were stimulated with 2 μg/ml LPS or 2 μg/ml LPS with 2 μM LPG at time 0 h. Actinomycin D (6 μg/ml) was added to all conditions 2 h later and cells were harvested by gentle scraping for extraction of total RNA at the designated time. The 2 h time point after LPS or LPS plus LPG treatment was used as the respective reference for comparison with residual IL-1β mRNA at the later time points. For each condition and time, the total RNA separated on agarose gel, transferred and immobilized on nylon membrane were probed with ^32P-labeled IL-1β cDNA or GAPDH cDNA.

[2] = test system: human umbilical vein endothelial cells; test: LPG and LPG fragment binding to endothelial cells (indirect immunofluorescence, FACS); conditions: LPG 1 μM
[3] = test system: IL-1β mRNA; test: Northern analysis of IL-1β mRNA induction in peripheral blood monocytes; conditions: 2 μM LPG pretreatment 2 h, N=2
Text: Human peripheral blood cells from the New York Blood Center (New York, N.Y.) obtained by Hypaque-Ficoll density centrifugation and adherence to plastic are 99% monocytes. […] Human monocytic cells THP-1 (TIB-202) and plasmid containing glyceraldehyde-3-phosphate dehydrogenase [GAPDH] cDNA (cat. #57090) were obtained from American Type Culture Collection (ATCC), Rockville, MdD. […] RPMI-1640, fetal bovine serum, L-glutamine, and penicillin-streptomycin (Gibco, Grand Island, N.Y.); β-mercaptoethanol, phorbol 12-myristate 13-acetate (PMA) and LPS from Escherichia coli serotype 055: B5 were purchased from the Sigma Chemical Co., St. Louis, Miss.
Human monocytes were cultured in endotoxin free complete medium as previously described. […]
Cells treated with or without LPG and/or inducers of IL-1β were harvested by gentle scrapping using a rubber policeman and sedimented by centrifugation at 500 g for 5 minutes in a microfuge. Total RNA was extracted using RNA STAT-60 solution (TEL-TEST “B” Inc., Friendswood, Tex.), based on a single step method for RNA isolation (P. Chomczynski and N. Sacchi, “Single-step Method of RNA Isolation by Acid Guanidinium Thiocyanate-phenol-chloroform Extraction,” Anal. Biochem., 162:156-59 (1987), hereby incorporated by reference), and quantitated by spectrophotometry.

[4] = test system: tissue factor; test: Tissue factor production by endothelial cells (one-stage clotting assay); format: cell-based, human
Method: Endothelial cell monolayers were pretreated with LPG for 1 hour and stimulated with endotoxin. Cultured endothelial cells, when stimulated by endotoxin, expressed high amounts of tissue factor. […] The production of tissue factor (in culture supernatant) is determined by a one-stage clotting assay. Helin et. al., “Allogeneic Induction of the Human T-cell-instructed Monocyte Procoagulant Response is Rapid and is Elicited by HLA-DR,” J. Exp. Med. 158: 962-75 (1983), which is hereby incorporated by reference.
To further examine if LPG can inhibit other endothelial cell functions, it was determined whether LPG inhibits thrombosis. Since thrombosis is mediated by the release of tissue factor (“TF”) by endothelial cells, the ability of LPG to inhibit TF production was evaluated. Cultured endothelial cells when stimulated by endotoxin express TF as determined by a one-stage clotting assay. Helin et. al., “Allogeneic Induction of the Human T-cell-instructed Monocyte Procoagulant Response is Rapid and is Elicited by HLA-DR,” J. Exp. Med. 158: 962-75 (1983), which is hereby incorporated by reference. […] To explore whether this effect was agonist specific, another agonist, TNF-α which is known to up-regulate TF generation, was used.

[5] = test system: HIV p24 antigen, ACH-2 cells; test: HIV p24 antigen production in chronically HIV-infected ACH-2 cells; format: cell-based; conditions: 72 h
Method: (§1) LPG, the major surface molecule of Leishmania, has macrophage deactivating functions. Based on the ability of LPG to suppress the generation of ROI and cytokine gene expression, we evaluated the potential that LPG may similarly suppress HIV production. FIGS. 27A-D illustrate the effect of 2 μM LPG pretreatment for 2 h on the induction HIV from chronically HIV-infected monocytic and T cell lines respectively, U1 and ACH-2 cells. LPG treatment of U1 cells for 72 h inhibited basal production of HIV p24 antigen at basal and induction in response to PMA, TNF-α and LPS by 90%, 82%, 60% and 66%, respectively (FIGS. 27A, B). The suppression of HIV p24 antigen production was time-dependent (FIG. 27B). […] The inhibition was also time-dependent. The results are the mean of 2 separate experiments and the SD was less than 10%.

[6] = test system: IL-1β promoter; format: cell-based, human; conditions: for suppression of endotoxin-induced CAT activity: LPG 2 μM 1 h; for suppression of LPS-induced CAT activity: 2 μM LPG 2 h
[7] = test system: THP-1 cells; test: THP-1 cell viability; format: cell-based, human; conditions: LPG 0.01 to 2 μM, data not shown
[8] = test system: E-selectin; test: Endotoxin-induced E-selectin expression on endothelial cells (FACS); format: cell-based, human; conditions: LPG pretreatment 1 h
Method: Endothelial cells pretreated with LPG at indicated amounts for 1 h were subsequently challenged with endotoxin. Washed cells incubated with monoclonal antibody specific for E-selectin or ICAM-1 were counter stained with fluorescein labeled anti-murine antibody, fixed and analyzed by FACS.

[9] = test system: TNF-α transcription; test: Nuclear run-on assay, TNF-α transcription; format: cell-based, human; conditions: LPG 1 μM pretreatment; LPS 1 μg/ml
[10] = test system: TNF-α mRNA; test: TNF-α mRNA expression and stability after endotoxin; format: cell-based, human
[11] = test system: NOS mRNA; format: cell-based, human; conditions: IFN-γ-primed macrophages; LPG 2 μM pretreatment; RT/PCR
[12] = test system: U1 and ACH-2 cells; test: Cell viability and proliferation (bromo-deoxy-uridine incorporation) of HIV-infected cell lines; format: cell-based, human
[13] = test system: HIV p24 antigen, U1 cells; test: HIV p24 antigen production in chronically HIV-infected U1 cells; format: cell-based; conditions: 72 h
Method: as §1

[14] = test system: IL-1β mRNA; test: Northern analysis of IL-1β mRNA induction in THP-1 cells; conditions: for amount of IL-1β mRNA in response to LPS: LPS 2 μg/ml 4 h
Method: Human monocytes were cultured in endotoxin free complete medium as previously described. […] THP-1 cells were maintained in RPMI-1640 supplemented with 2 mM L-glutamine, 100 U/ml penicillin-streptomycin, 5×10^−5 M β-mercaptoethanol, and 10% heat-inactivated fetal bovine serum (FBS). For experiments to determine the effect of LPG, THP-1 cells (10×10^6 per condition) were washed with RPMI 1640 and resuspended in complete medium composed of RPMI-1640 supplemented with 2 mM L-glutamine, 100 U/ml penicillin and 100 μg/ml streptomycin. These cells were cultured in 24-well plates with or without 0.01 to 2 μM LPG (0.1 to 20 μg/ml) for different times either before (−h), simultaneously with (0 h) or after (+h) the addition of inducers of IL-1β (eg., LPS, TNF-α, or S. epidermidis). Peripheral blood monocytes enumerated after detachment using a rubber policeman were similarly treated or not with LPG and cultured with stimuli. Cell were stimulated with 0.1 to 3 μg/ml LPS, TNF-α (50 ng/ml), 25 to 50 ng/ml PMA for 4 to 24 h, or opsonized heat-killed S. epiderimidis at ratio of 10 particles per cell.
Cells treated with or without LPG and/or inducers of IL-1β were harvested by gentle scrapping using a rubber policeman and sedimented by centrifugation at 500 g for 5 minutes in a microfuge. Total RNA was extracted using RNA STAT-60 solution (TEL-TEST “B” Inc., Friendswood, Tex.), based on a single step method for RNA isolation (P. Chomczynski and N. Sacchi, “Single-step Method of RNA Isolation by Acid Guanidinium Thiocyanate-phenol-chloroform Extraction,” Anal. Biochem., 162:156-59 (1987), hereby incorporated by reference), and quantitated by spectrophotometry. Equal amount of total RNA (15-20 μg per sample) was denatured, loaded onto 1.2% agarose-formaldehyde gel, run for 4 h at 30 volts and subsequently transferred by capillary action onto nylon membrane (0.45 μm pore size, NYTRAN, S&S, Keene, N.H.). Membranes were prehybridized at 42° C. for 4 h in prehybridization buffer (50% formamide, 6×SSPE, and 0.5% SDS), and hybridized in hybridization buffer (50% formamide, 6×SSPE, and 5 SDS) containing 10-15×10^6 cpm of random-priming ^32p-labeled IL-1β cDNA (Boehringer Mannheim GmbH, Mannheim, Germany). […] Washed membranes were exposed to KODAK X-OMAT AR films for 24 to 72 h and to phosphor screens (Molecular Dynamics Ltd., Kent, Tenn.) for 24-28 h. Quantitative analysis of the specific bands was performed using Phosphor Imager Analyzer. […] All percent suppression of IL-1β mRNA values were normalized by the amount of GAPDH present in each condition which varied less than 10% between conditions because equivalent amounts of total RNA were loaded for electrophoresis.

[15] = test system: DNA sequence from the −310 to −57 region of the IL-1β promoter; test: Gel shift assay of nuclear protein binding to IL-1β promoter DNA; format: cell-based, human; conditions: THP-1 cells treated with LPG; preliminary data

## lipophosphoglycan [LPG]
[1]
  enhancement of rate of IL-1β mRNA degradation: approximately 30%
[2]
  time at which LPG binding was obvious: 16 min
[2]; 1 h
  LPG binding: significant LPG was bound
[3]; LPS 2 μg/ml
  inhibition of LPS induction of IL-1β mRNA: greater than 90%
[3]
  inhibition of S. epidermidis induction of IL-1β mRNA: greater than 80%
[4]
  effect on TNF-α induction of endothelial cell production of TF: no effect
[4]; LPG 2 μM
  effect on endotoxin-induction of TF: completely abrogated
[4]; LPG pretreatment 1 hour
  effect on endotoxin induction of TF production: dose-dependent inhibition
[5]; 2 μM LPG pretreatment 2 h
  inhibition of HIV p24 antigen production in response to LPS: 69%
  inhibition of HIV p24 antigen production in response to PMA: 81%
  inhibition of HIV p24 antigen production in response to TNF-α: 88%
[5]; 2 μM LPG
  inhibition of basal production of HIV p24 antigen: 62%
[6]; IL-1β promoter deleted to −57
  LPG's inhibitory activity on LPS-induced CAT activity: completely abrogated; also recorded: no LPG inhibitory activity
[6]; IL-1β promoter truncated to −131
  suppression of CAT activity: 7%+1% and 7%
[6]; deletional mutant X2-HT-CAT (−3757 to −2729 linked to −131 to +11)
  suppression of endotoxin-induced CAT activity: 8%+4% and 8%
[6]; full-length −3757 to +11 construct (XT-CAT), n=5
  suppression of endotoxin-induced CAT activity: 50%+5%
[6]; medium with 2.5% or 5% FBS, LPG 2 μM 2 h, LPS 2 μg/ml
  effect on endotoxin-activation of IL-1β promoter activity in presence of serum: suppresses; also recorded: similar
[6]; plasmid with −310/+15 promoter sequence, LPS 2 μg/ml
  suppression of LPS-induced CAT activity: approximately 40%
[6]; plasmid with −680/+15 promoter sequence, LPS 2 μg/ml
  suppression of LPS-induced CAT activity: approximately 40%
[6]; plasmid with −1110/+15 promoter sequence, LPS 2 μg/ml
  suppression of LPS-induced CAT activity: approximately 40%
[7]
  effect on cell viability: not affected
[8]
  effect on endotoxin-mediated expression of E-selectin: strongly suppressed; also recorded: blockage or suppression
[9]
  suppression of endotoxin-mediated TNF-α transcription: −70%
[10]; LPG added 2 h after endotoxin
  effect on endotoxin induction of TNF-α expression: effective
[10]; LPG added 4 h prior to addition of endotoxin
  effect on endotoxin induction of TNF-α expression: significantly suppressed
[10]; actinomycin D, data not shown
  effect on TNF-α mRNA stability: minimal effect
[11]
  effect on M. tuberculosis-induction of NOS mRNA: suppressed
[12]; cells treated or not treated with LPG
  percentages of viable cells: 98%
[12]; each of the stimulation conditions
  effect on cell proliferation (bromo-deoxy-uridine incorporation): did not alter
[13]; 2 μM LPG pretreatment 2 h
  inhibition of HIV p24 antigen induction in response to LPS: 66%
  inhibition of HIV p24 antigen induction in response to PMA: 82%
  inhibition of HIV p24 antigen induction in response to TNF-α: 60%
[13]; 2 μM LPG
  inhibition of basal production of HIV p24 antigen: 90%
[14]; LPG added simultaneously with the endotoxin
  effect on IL-1β mRNA expression in monocytes: exerted an inhibitory effect
[14]; THP-1, 1 or 2 μM LPG 2 h, washed twice, then LPS 4 h
  effect of washing to remove LPG on LPG's ability to suppress LPS induction of IL-1β mRNA: no effect
[14]; THP-1, LPG 2 μM added between 2 h before to 1 h after LPS 2 μg/ml
  suppression of LPS induction of IL-1β mRNA: greater than 90%
[14]; THP-1, LPG 2 μM pretreatment 2 h, TNF-α 50 ng/ml, mean±SD, N=5
  inhibition of TNF-α induced IL-1β mRNA: approximately 50%±10%
[14]; THP-1, LPG 2 μM pretreatment for 2 h, N=3
  inhibition of S. epidermidis-induced IL-1β mRNA: 30±10%
[14]; THP-1, LPG 2 μM simultaneous with opsonized S. epidermidis, N=3
  suppression of S. epidermidis-induced IL-1β mRNA: greater than 80±19%
[14]; THP-1, LPG 2 μM, PMA 25 or 50 ng/ml, N=3
  suppression of PMA induction of IL-1β mRNA: did not suppress
[14]; THP-1, LPG 1 or 2 μM added 4 h before LPS 2 μg/ml
  inhibitory activity on LPS induction of IL-1β mRNA: lost
[14]; THP-1, LPG 2 h after S. epidermidis induction
  effect on S. epidermidis-induced IL-1β mRNA: minimal to no demonstrable effect
[14]; THP-1, LPG added +2 h after LPS stimulation
  suppression of IL-1β mRNA: 70%
[14]; THP-1, pretreated 2 h with 1 μM LPG
  amount of IL-1β mRNA in response to LPS: lower amounts of IL-1β mRNA
[14]; THP-1, pretreated 2 h with 2 μM LPG
  amount of IL-1β mRNA in response to LPS: little or no IL-1β mRNA detected
[14]; THP-1, pretreated 2 h with LPG 0.01 to 2.0 μM, LPS 0.1 to 3 μg/ml
  maximum inhibition of IL-1β mRNA (dose-dependent): greater than 90%
[14]; THP-1, pretreatment with LPG 2 μM, endotoxin 2 μg/ml
  inhibition of endotoxin-mediated IL-1β mRNA production: completely inhibited
[15]
  induction of nuclear protein(s) binding to promoter DNA sequence: induced the presence of a nuclear protein(s) that bound a DNA sequence derived from this region
